The target in one test is Troponin, cardiac muscle (Homo sapiens, UniProt P19429+P45379+P63316). The test is described as follows: compounds desensitizing RTF to calcium – biochemical, fluorescence, cardiac regulated thin filaments, triplicate IC50, dose response (AID 504742). The class given is protein-complex assay.
Test [1] is described as follows: inhibition of ADAM10 peptide cleavage – biochemical, FRET peptide substrate, recombinant human ADAM10, selectivity assay for ADAM17 exosite inhibitor project, dose response (AID 743259).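 Note: ADAM10 enzyme cleaving a FRET peptide substrate.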
Test [2] deals with 1-phosphatidylinositol 4,5-bisphosphate phosphodiesterase gamma-1 (Homo sapiens, UniProt P19174). Nature of the test: Counterscreen for inhibitors of phospholipase C isozymes (PLC-B3): Fluorescence-based biochemical high throughput dose response assay to identify inhibitors of phospholipase C isozymes (PLC-gamma1).
For test [3], the target named is Disintegrin and metalloproteinase domain-containing protein 17 (Homo sapiens, UniProt P78536). Nature of the test: exosite inhibitors of ADAM17, dose response, biochemical (AID 743260).
Disintegrin and metalloproteinase domain-containing protein 17, sequence (P78536 whole entry, the tested form may be a part): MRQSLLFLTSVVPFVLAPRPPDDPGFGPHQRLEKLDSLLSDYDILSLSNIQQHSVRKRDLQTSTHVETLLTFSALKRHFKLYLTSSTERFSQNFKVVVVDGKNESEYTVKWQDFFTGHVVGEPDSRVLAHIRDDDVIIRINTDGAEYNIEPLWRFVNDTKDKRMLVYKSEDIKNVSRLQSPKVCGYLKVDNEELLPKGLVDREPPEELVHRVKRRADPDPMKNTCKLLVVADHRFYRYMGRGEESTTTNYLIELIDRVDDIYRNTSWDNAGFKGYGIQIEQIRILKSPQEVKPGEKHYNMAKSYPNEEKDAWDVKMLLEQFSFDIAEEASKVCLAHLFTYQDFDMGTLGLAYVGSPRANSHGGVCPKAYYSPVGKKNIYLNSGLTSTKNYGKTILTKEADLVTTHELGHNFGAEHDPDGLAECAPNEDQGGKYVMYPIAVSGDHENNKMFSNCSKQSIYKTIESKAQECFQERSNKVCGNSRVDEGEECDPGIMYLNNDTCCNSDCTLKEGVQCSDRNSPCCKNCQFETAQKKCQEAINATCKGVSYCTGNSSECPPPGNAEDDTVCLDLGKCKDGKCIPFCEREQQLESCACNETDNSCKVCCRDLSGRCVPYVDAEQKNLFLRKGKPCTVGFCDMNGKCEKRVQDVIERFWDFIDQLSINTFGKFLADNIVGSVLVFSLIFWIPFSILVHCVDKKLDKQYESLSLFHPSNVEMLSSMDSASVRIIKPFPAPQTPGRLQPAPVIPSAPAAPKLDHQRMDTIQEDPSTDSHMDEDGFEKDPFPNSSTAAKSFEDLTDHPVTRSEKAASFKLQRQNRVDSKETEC
For test [4], the target named is Tyrosyl-DNA phosphodiesterase 2 (Homo sapiens, UniProt O95551). Nature of the test: potency against TDP2 phosphodiesterase activity – biochemical, epi absorbance, IC50, dose response (AID 743297).
Tyrosyl-DNA phosphodiesterase 2, sequence (O95551 whole entry): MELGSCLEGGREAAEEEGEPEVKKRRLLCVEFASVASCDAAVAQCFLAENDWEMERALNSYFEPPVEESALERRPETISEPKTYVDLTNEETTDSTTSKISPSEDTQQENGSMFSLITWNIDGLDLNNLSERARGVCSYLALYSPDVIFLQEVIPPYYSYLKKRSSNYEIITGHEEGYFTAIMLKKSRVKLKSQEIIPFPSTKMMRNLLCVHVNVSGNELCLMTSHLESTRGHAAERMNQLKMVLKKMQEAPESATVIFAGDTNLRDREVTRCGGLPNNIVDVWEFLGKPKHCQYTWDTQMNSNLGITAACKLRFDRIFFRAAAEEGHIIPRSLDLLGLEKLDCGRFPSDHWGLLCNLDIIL
For test [5], the target named is 1-phosphatidylinositol 4,5-bisphosphate phosphodiesterase beta-3 (Homo sapiens, UniProt Q01970). Nature of the test: Fluorescence-based biochemical high throughput dose response assay to identify inhibitors of phospholipase C isozymes (PLC-B3).
For test [6], the target named is T1, RNA-binding protein pos-1 (Caenorhabditis elegans, UniProt G5EF15).
T1 sequence (G5EF15 whole entry): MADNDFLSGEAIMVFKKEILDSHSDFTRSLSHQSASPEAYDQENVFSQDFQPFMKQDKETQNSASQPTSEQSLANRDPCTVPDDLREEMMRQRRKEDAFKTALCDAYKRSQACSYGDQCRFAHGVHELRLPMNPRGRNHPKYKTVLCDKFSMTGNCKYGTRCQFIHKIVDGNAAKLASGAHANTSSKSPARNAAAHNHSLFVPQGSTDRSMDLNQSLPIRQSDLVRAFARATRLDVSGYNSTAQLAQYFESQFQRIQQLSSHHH
The test is described as follows: disruptors of C. elegans POS-1 RNA interaction – biochemical, fluorescence polarization, dose response (AID 1964).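 Note: purified POS-1 fused to maltose binding protein made in E. coli; potency of compounds blocking POS-1 binding to fluorescent RNA.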

In test [7] the target is T2, Zinc finger protein mex-5 (Caenorhabditis elegans, UniProt Q9XUB2).
T2 sequence (Q9XUB2 whole entry): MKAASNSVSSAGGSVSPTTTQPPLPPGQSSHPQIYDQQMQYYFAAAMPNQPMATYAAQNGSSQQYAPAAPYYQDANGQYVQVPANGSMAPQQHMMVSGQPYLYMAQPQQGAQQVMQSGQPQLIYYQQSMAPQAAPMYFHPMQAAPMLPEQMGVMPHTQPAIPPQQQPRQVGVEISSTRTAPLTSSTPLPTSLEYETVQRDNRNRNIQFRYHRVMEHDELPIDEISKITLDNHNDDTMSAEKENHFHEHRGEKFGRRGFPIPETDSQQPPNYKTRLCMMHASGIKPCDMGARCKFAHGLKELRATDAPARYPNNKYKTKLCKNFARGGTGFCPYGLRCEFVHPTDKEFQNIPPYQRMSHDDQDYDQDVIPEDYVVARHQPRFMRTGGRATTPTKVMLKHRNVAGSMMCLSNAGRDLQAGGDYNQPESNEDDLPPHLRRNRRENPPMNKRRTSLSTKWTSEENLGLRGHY
The test is described as follows: potency of MEX-5 RNA-binding blockers – biochemical, C. elegans, fluorescence polarization, dose response (AID 1960). (Polarisation of emitted light reports the rotation of a fluorescent probe.)

The target of test [8] is T3, Kappa-type opioid receptor (Homo sapiens, UniProt P41145). Nature of the test: SAR analysis of small molecule antagonists of the kappa opioid receptor via a luminescent beta-arrestin assay - Set 3. [Related pubchem assays (depositor defined):AID1777, AID1778, AID1785, AID1786, AID1966, AID2133, AID2136, AID2285, AID2495]. The class given is functional.
T3 sequence (P41145 whole entry): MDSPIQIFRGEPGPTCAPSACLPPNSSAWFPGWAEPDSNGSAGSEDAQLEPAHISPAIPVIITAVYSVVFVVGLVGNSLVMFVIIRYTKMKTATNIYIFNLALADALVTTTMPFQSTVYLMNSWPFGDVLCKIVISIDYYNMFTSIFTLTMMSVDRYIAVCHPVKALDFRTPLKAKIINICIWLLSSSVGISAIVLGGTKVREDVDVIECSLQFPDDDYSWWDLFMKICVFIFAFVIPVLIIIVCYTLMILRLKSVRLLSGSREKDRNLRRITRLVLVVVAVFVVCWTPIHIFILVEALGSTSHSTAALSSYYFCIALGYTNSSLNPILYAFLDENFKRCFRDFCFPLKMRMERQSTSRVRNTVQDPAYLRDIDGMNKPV
The target of test [9] is T3, Kappa-type opioid receptor. The test is described as follows: SAR analysis of Antagonists of the Kappa Opioid Receptor (KOR) using an Image-Based Assay - Set 4. [Related pubchem assays (depositor defined):AID1777, AID1785]. The class given is functional.
The target of test [10] is Delta-type opioid receptor (Homo sapiens, UniProt P41143). Nature of the test: SAR Analysis of Antagonists of the DOR Receptor using an Image-Based Assay - Set 3. [Related pubchem assays (depositor defined):AID1777, AID1785]. The class given is functional.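 Note: U2OS cells expressing DOR1 and beta-arrestin GFP stimulated with 100 nM SNC80; imaging of GFP-tagged beta-arrestin moving into spots after receptor activation.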
Delta-type opioid receptor, sequence (P41143 whole entry): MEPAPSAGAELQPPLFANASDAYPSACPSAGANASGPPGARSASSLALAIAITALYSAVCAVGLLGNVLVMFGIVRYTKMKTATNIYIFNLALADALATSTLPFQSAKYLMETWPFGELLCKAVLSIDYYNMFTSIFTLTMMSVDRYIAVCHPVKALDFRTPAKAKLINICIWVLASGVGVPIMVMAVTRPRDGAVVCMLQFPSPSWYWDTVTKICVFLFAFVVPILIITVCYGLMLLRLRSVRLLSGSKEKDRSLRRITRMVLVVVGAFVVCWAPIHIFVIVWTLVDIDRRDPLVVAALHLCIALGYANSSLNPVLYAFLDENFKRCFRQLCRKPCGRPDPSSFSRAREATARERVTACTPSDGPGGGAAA
For another test, the target named is Mu-type opioid receptor (Homo sapiens, UniProt P35372). The test is described as follows: SAR Analysis of Antagonists of the MOR Receptor using an Image-Based Assay - Set 3. [Related pubchem assays (depositor defined):AID1777, AID1785, AID1786, AID1966, AID2133, AID2136, AID2284, AID2285, AID2420]. Format: functional.
A short description of test [11]: HEK-293T viability loss after treatment – luminescence, T-cell screen hits, cytotoxicity control for TCR NF-kB inhibitor project, dose response (AID 489026).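 Note: cells exposed to compound about 14 hours before the viability readout.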 The class given is functional, cell-based.
For a further test, the system named is J774.A1. Nature of the test: Confirmation of image-based Screening Assay for Inhibitors of Phagocytosis. [Related pubchem assays (depositor defined):AID1029, AID1643]. To be noted: Mus musculus. The class given is functional, cell-based.
Test [12] in a line: viability loss in Vero cells – cytotoxicity control for Vif-APOBEC3G degradation inhibitor project, dose response (AID 1117358). Format: functional. To be noted: Vero.
Test [13] deals with Intestinal-type alkaline phosphatase (Homo sapiens, UniProt P09923). The test is described as follows: inhibition of human intestinal alkaline phosphatase – biochemical, dose response (AID 488876). Format: functional.
Intestinal-type alkaline phosphatase (Homo sapiens, UniProt P09923), sequence (P09923 whole entry): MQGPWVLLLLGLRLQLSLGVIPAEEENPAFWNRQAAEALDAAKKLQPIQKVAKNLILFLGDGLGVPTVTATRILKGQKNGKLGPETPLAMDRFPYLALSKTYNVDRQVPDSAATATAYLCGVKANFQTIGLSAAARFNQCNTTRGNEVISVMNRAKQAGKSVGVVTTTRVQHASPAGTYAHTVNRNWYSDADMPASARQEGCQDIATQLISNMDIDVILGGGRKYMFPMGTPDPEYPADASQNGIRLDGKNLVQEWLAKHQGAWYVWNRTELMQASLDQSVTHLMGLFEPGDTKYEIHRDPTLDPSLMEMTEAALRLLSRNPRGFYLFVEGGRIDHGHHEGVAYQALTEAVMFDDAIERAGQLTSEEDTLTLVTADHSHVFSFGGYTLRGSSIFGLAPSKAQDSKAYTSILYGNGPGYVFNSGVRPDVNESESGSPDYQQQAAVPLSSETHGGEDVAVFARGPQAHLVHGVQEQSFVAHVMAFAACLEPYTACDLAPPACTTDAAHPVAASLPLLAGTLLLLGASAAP
Test [14] concerns the target Alkaline phosphatase, placental type (Homo sapiens, UniProt P05187). Nature of the test: human placental alkaline phosphatase inhibition – biochemical, luminescence, confirmation (AID 1512). Format: functional.
Test [15] concerns the target Intestinal-type alkaline phosphatase (Mus musculus, UniProt P24822). Nature of the test: PubChem AID 488785. The class given is functional.
For test [16], the target named is Glutathione S-transferase omega-1 (Homo sapiens, UniProt P78417). Nature of the test: IC50 of human GSTO1 blockade by gel ABPP – biochemical, SE-Rh probe, in-gel fluorescence, powder samples, set 2, late-stage follow-up (AID 463142). The class given is functional.
Test [17] deals with G-protein coupled receptor 55 (Homo sapiens, UniProt Q9Y2T6). The test is described as follows: selective activators of receptor GPR55 – imaging, U2OS cells, beta-arrestin-GFP redistribution, primary screen (AID 1961). Format: functional.
G-protein coupled receptor 55, sequence (Q9Y2T6 whole entry): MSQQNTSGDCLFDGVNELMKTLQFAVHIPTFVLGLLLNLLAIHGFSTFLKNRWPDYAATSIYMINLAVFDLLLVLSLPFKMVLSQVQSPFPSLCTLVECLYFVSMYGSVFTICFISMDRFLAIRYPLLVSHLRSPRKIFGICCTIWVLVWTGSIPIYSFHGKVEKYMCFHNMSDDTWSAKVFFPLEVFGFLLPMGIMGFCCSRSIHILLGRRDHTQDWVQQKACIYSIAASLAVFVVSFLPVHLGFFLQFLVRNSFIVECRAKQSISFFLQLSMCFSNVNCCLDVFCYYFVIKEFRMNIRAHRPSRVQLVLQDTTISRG
The target in another test is Ephrin type-A receptor 4 (Mus musculus, UniProt Q03137). The test is described as follows: EphA4 ligand-binding antagonists – biochemical, colorimetric, mouse EphA4, primary screen (AID 689). Format: functional.
Ephrin type-A receptor 4, sequence (Q03137 whole entry): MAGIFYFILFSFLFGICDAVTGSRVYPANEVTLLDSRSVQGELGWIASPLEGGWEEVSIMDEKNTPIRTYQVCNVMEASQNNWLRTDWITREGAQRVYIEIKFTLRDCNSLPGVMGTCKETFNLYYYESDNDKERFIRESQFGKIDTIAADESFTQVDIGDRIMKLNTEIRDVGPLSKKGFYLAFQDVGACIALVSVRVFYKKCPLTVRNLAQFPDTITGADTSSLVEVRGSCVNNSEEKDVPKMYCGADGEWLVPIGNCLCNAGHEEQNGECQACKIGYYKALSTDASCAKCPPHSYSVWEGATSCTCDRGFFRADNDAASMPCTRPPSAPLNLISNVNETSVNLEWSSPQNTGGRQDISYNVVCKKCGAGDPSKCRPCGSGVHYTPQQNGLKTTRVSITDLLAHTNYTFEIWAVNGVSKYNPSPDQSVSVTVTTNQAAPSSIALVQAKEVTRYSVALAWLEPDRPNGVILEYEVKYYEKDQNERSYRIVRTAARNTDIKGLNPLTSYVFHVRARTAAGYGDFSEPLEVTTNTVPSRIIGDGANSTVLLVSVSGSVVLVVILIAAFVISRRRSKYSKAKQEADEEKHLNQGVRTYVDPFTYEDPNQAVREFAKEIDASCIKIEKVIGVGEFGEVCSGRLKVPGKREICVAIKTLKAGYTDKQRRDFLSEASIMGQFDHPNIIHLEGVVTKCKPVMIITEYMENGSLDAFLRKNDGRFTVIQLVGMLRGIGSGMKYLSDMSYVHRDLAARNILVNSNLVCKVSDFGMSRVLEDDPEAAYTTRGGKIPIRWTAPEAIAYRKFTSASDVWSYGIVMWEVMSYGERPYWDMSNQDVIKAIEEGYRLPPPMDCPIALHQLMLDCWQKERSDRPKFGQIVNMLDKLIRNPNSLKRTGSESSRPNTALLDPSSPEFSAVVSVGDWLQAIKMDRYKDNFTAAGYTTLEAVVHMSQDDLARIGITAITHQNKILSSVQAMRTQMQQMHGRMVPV
Another test addresses ORF 73 (Human herpesvirus 8, UniProt O40947). Nature of the test: KSHV LANA DNA-binding disruption – biochemical, fluorescence polarization, cherry-picked samples, dose response (AID 504725).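 Note: fluorescence polarization of a labeled DNA duplex reporting LANA DNA binding; potency is for inhibitors that block LANA binding to the DNA.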 Set-up: species or system Human gammaherpesvirus 8.
Test [18] has as its target T4, Carboxy-terminal domain RNA polymerase II polypeptide A small phosphatase 1 (Homo sapiens, UniProt Q9GZU7).
T4 sequence (Q9GZU7 whole entry): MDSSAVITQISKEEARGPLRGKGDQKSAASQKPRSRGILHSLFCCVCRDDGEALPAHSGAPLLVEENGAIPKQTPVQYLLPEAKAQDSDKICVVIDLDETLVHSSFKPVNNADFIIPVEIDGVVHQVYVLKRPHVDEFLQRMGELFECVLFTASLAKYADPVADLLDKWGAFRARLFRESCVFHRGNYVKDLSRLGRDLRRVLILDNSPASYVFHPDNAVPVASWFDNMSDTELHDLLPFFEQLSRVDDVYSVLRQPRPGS
The test is described as follows: CTDSP1 inhibitors, concentration-response, biochemical, absorbance readout, ultra-high-throughput screen actives (AID 540297). The class given is functional.

In test [19] the target is T5, Histone-lysine N-methyltransferase NSD2 (Homo sapiens, UniProt O96028).
T5 sequence (O96028 whole entry): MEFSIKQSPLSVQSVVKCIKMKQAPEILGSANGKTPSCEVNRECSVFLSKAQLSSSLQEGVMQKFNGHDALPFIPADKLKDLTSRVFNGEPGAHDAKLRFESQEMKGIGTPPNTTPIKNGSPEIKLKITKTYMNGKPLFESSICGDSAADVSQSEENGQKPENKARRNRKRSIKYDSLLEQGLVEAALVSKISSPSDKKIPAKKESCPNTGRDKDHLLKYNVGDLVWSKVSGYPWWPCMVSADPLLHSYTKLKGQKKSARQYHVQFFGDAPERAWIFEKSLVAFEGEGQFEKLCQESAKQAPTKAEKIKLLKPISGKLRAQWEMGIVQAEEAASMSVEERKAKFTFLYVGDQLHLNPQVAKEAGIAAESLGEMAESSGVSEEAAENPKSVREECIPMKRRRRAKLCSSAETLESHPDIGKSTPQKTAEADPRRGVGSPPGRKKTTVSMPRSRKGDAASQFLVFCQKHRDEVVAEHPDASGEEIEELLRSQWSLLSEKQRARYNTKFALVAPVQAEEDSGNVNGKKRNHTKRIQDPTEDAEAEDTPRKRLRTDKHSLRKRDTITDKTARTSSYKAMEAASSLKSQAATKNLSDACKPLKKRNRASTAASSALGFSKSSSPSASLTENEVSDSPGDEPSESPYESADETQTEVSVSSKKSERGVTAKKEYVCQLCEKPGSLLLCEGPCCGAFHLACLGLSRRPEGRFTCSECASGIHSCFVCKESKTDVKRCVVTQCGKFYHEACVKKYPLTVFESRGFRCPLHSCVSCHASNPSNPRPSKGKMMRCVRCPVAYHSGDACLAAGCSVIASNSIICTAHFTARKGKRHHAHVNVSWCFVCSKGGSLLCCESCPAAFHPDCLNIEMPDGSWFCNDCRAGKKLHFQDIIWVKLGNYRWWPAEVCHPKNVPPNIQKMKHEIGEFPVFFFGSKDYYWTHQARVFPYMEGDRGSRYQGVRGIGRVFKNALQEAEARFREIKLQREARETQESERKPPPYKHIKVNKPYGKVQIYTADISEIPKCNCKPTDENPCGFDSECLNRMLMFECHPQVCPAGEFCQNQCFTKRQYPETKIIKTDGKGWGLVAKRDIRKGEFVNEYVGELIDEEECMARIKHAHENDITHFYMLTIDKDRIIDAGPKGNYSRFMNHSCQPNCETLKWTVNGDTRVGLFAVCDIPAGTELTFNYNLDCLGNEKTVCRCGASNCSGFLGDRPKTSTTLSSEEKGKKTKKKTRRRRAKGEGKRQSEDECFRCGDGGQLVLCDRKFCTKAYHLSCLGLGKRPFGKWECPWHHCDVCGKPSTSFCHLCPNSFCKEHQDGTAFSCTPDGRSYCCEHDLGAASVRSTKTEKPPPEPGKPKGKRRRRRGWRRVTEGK
Format: biochemical.

Structures are written as SMILES. The source made the active and inactive calls.

Alkaline phosphatase, placental type, sequence (P05187 whole entry): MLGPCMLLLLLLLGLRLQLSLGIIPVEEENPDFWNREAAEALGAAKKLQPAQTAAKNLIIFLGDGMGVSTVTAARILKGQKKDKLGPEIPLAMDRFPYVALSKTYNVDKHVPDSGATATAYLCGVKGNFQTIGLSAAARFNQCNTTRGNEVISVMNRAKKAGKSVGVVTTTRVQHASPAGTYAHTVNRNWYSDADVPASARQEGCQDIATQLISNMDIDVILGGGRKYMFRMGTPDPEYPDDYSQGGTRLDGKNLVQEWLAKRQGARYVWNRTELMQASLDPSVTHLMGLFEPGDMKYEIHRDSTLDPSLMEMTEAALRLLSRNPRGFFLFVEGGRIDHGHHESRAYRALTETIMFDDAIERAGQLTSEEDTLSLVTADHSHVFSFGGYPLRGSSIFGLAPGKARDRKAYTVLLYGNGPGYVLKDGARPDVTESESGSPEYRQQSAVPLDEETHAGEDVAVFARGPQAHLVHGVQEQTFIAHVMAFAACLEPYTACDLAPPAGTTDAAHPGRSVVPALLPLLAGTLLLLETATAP
Intestinal-type alkaline phosphatase (Mus musculus, UniProt P24822), sequence (P24822 whole entry): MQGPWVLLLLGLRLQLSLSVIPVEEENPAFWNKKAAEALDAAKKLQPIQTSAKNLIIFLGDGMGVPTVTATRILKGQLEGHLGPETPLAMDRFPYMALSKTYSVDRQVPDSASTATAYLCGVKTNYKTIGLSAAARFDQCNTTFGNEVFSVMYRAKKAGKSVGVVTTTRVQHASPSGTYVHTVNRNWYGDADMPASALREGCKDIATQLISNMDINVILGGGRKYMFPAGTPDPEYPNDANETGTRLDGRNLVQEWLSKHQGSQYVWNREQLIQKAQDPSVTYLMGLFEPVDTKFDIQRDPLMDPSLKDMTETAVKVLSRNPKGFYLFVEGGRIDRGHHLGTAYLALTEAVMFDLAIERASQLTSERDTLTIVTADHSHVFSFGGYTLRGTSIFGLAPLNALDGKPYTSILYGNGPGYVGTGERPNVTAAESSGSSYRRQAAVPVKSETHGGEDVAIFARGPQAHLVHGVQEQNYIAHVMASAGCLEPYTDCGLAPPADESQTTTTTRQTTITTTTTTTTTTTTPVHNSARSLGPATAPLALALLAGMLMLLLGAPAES

In general, IC50 refers to the concentration that gives 50% inhibition. The term EC50 denotes the concentration giving half of the maximal effect. As to `O=C(O)c1cc(O)c2c(c1)[C@H]([C@H]1c3cc(C(=O)O)cc(O)c3C(=O)c3c(O[C@@H]4O[C@H](CO)[C@@H](O)[C@H](O)[C@H]4O)cccc31)c1cccc(OC3O[C@H](CO)[C@@H](O)[C@H](O)[C@H]3O)c1C2=O` (some centres undefined), the IC50 at Troponin, cardiac muscle is 2.72 µM (active); in test [1], > 23.2 µM (inactive); in test [2], 18.8 µM (inactive); in test [3], 30.4 µM (inactive); in test [4] it was > 128 µM (inactive); in [5] it was 109 µM (inactive). For the same compound, the EC50 in test [6] is > 300 µM (not active); in test [7] it was 7.25 µM (active).

Turning to `O=C(Cn1c(=O)c2cccn2c2cccnc21)NCCCN1CCN(c2ccc3c(c2)OCO3)CC1`, the IC50 in test [8] was 4.23 µM (active); in test [9] it was 0.776 µM (active); in test [10], > 32 µM (inactive); on Mu-type opioid receptor it was > 32 µM (inactive).

One may read the CC50 as the concentration at which the toxic effect on the cells reaches its halfway point. Consider `COc1ccc(C2=NOC(C(=O)NCc3cccs3)C2)cc1OC` (centres undefined), for which the IC50 was > 80 µM (inactive) in test [11] and 0.609 µM (active) in the test with J774.A1. The CC50 in test [12] is > 40 µM (active).

`C=C(C)c1cccc(C(C)(C)NC(=O)NC(c2ccccc2)c2ccc(OC)cc2)c1` (centres undefined): the IC50 was 9.59 µM (active) in [13], > 100 µM (inactive) in test [14] and 7.54 µM (active) in test [15].

For the compound `O=C(CCl)N(CCCCCNC(=O)C(F)(F)F)c1ccc([N+](=O)[O-])cc1`, the IC50 in test [16] is 0.034 µM (active).

On to `CCCCN1C(=O)/C(=C/C=C2\N(C)c3ccccc3C2(C)C)SC1=S`, for which, in test [17], the EC50 was 0.731 µM (active). Also, the IC50 at Ephrin type-A receptor 4 was 5.34 µM (active).

As a reminder, the AC50 is the concentration at which the activity in the assay is half-maximal. On to `O=C(O)COc1ccc2c(c1)O/C(=C\c1ccco1)C2=O`, for which the AC50 is 157 µM (active) on ORF 73 and > 20 µM (inactive) in test [19]. Moreover, in [18], the IC50 was 3.74 µM (active).

For the origin of these results see ChEMBL document CHEMBL1201862, “PubChem BioAssay data set” (2004).
